Data: ChEMBL document CHEMBL3137667, “[Drug-induced liver injury; fourteenth updated edition of the bibliographic database of liver injuries and related drugs]” (Gastroenterol Clin Biol, 2004)

Experiments:
[1] = Times to onset, minimal and maximal, observed in the indexed observations. [column 'DELAI' in source]; conditions: human
[2] = Highest frequency of acute liver toxicity observed during clinical trials, expressed as a percentage. [column '% AIGUE' in source]; conditions: human
[3] = human
[4] = Highest frequency of moderate liver toxicity observed during clinical trials, expressed as a percentage. [column '% BIOL' in source]; conditions: human
[5] = human; remark: listed apart in the source
[6] = human; remark: listed apart in the source
[7] = human; remark: listed apart in the source
[8] = human; remark: listed apart in the source
[9] = human; remark: listed apart in the source
[10] = human; remark: listed apart in the source
[11] = human; remark: listed apart in the source
[12] = human; remark: listed apart in the source
[13] = human, serum
[14] = human; remark: listed apart in the source
[15] = human, serum, 4383 h
[16] = human, serum; remark: listed apart in the source
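Throughout, for Hepatotoxicity (association with vascular disease): count of indexed literature references reporting vascular liver injury in humans, e.g. peliosis hepatitis, hepatic veno-occlusive disease or Budd-Chiari syndrome.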
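Throughout, for Hepatotoxicity (benign tumour): value is a count of indexed literature references citing a benign tumour confirmed by histopathology.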
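Throughout, for Hepatotoxicity (choleostasis): human cholestatic liver injury, shown by histopathology or by peak ALT or AST elevation over alkaline phosphatase ratio below 2, value counts indexed literature reports.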
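Throughout, for Hepatotoxicity (chronic liver disease): chronic liver injury confirmed by histopathology or persistently raised serum aminotransferase activity beyond 6 months, value given as the count of indexed literature references.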
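Throughout, for Hepatotoxicity (cirrhosis): value is a count of indexed literature references reporting cirrhosis confirmed by histopathology.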
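Throughout, for Hepatotoxicity (cytolytic): human cytolytic liver injury, shown by histopathology or by a ratio above 5 of peak ALT or AST elevation to alkaline phosphatase elevation, value counts indexed references.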
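Throughout, for Hepatotoxicity (granulomatous hepatitis): value is a count of indexed literature references reporting granulomatous liver disease confirmed by histopathology.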
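Throughout, for Hepatotoxicity (malignant tumour): malignant tumour confirmed by histopathology, value gives the count of indexed literature references reporting it.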
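Throughout, for Hepatotoxicity (severe hepatitis): human clinical data: severe hepatitis, meaning potentially life-threatening liver failure or clinically observed cases, the value counts how many indexed literature references report it.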
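Throughout, for Hepatotoxicity (steatosis): steatosis confirmed by histopathology, value is the count of indexed references.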

SMILES: CC(C)[C@](O)(C(=O)OCC1=CC[N+]2([O-])CC[C@@H](O)[C@@H]12)[C@H](C)O (some centres undefined) [INDICINE N-OXIDE]
- Hepatotoxicity (time to onset) [1]: 1 cure - 2 cures
- Hepatotoxicity (acute) [2]: 22.7%
- Hepatotoxicity (association with vascular disease) [3]: 1
- Hepatotoxicity (moderate) [4]: 62.5%
- Hepatotoxicity (cytolytic) [5]: 4
- Hepatotoxicity (animal toxicity known) [6]: yes
- Hepatotoxicity (steatosis) [7]: 0
- Hepatotoxicity (choleostasis) [8]: 0
- Hepatotoxicity (cirrhosis) [9]: 0
- Hepatotoxicity (severe hepatitis) [10]: 4
- Hepatotoxicity (malignant tumour) [11]: 0
- Hepatotoxicity (benign tumour) [12]: 0
- Hepatotoxicity (acute) [13]: 6
- Hepatotoxicity (granulomatous hepatitis) [14]: 0
- Hepatotoxicity (chronic liver disease) [15]: 0
- Hepatotoxicity (moderate) [16]: 8

SMILES: N[C@@H](Cc1cc(I)c(Oc2cc(I)c(O)c(I)c2)c(I)c1)C(=O)O [LEVOTHYROXINE]
- Hepatotoxicity (time to onset) [1]: 12 days - 4 years
- Hepatotoxicity (acute) [2]: 0%
- Hepatotoxicity (association with vascular disease) [3]: 0
- Hepatotoxicity (moderate) [4]: 0%
- Hepatotoxicity (cytolytic) [5]: 0
- Hepatotoxicity (animal toxicity known) [6]: yes
- Hepatotoxicity (steatosis) [7]: 0
- Hepatotoxicity (choleostasis) [8]: 0
- Hepatotoxicity (cirrhosis) [9]: 1
- Hepatotoxicity (severe hepatitis) [10]: 0
- Hepatotoxicity (malignant tumour) [11]: 0
- Hepatotoxicity (benign tumour) [12]: 0
- Hepatotoxicity (acute) [13]: 1
- Hepatotoxicity (granulomatous hepatitis) [14]: 0
- Hepatotoxicity (chronic liver disease) [15]: 0
- Hepatotoxicity (moderate) [16]: 1

SMILES: Cl[C@H]1[C@H](Cl)[C@@H](Cl)[C@@H](Cl)[C@H](Cl)[C@H]1Cl [LINDANE]
- Hepatotoxicity (time to onset) [1]: 3 weeks
- Hepatotoxicity (acute) ([2]; Liver): 0%
- Hepatotoxicity (association with vascular disease) [3]: 0
- Hepatotoxicity (moderate) ([4]; Liver): 0%
- Hepatotoxicity (cytolytic) ([5]; Liver): 1
- Hepatotoxicity (animal toxicity known) [6]: yes
- Hepatotoxicity (steatosis) [7]: 0
- Hepatotoxicity (choleostasis) ([8]; Liver): 0
- Hepatotoxicity (cirrhosis) [9]: 0
- Hepatotoxicity (severe hepatitis) ([10]; Liver): 0
- Hepatotoxicity (malignant tumour) [11]: 0
- Hepatotoxicity (benign tumour) [12]: 0
- Hepatotoxicity (acute) [13]: 2
- Hepatotoxicity (granulomatous hepatitis) ([14]; Liver): 0
- Hepatotoxicity (chronic liver disease) [15]: 0
- Hepatotoxicity (moderate) [16]: 0

SMILES: O=NN(CCCl)C(=O)NC1CCCCC1 [LOMUSTINE]
- Hepatotoxicity (time to onset) [1]: 2 days - 4 months
- Hepatotoxicity (acute) [2]: 0%
- Hepatotoxicity (association with vascular disease) [3]: 0
- Hepatotoxicity (moderate) [4]: 39%
- Hepatotoxicity (cytolytic) [5]: 1
- Hepatotoxicity (animal toxicity known) [6]: yes
- Hepatotoxicity (steatosis) [7]: 0
- Hepatotoxicity (choleostasis) [8]: 2
- Hepatotoxicity (cirrhosis) [9]: 0
- Hepatotoxicity (severe hepatitis) [10]: 1
- Hepatotoxicity (malignant tumour) [11]: 0
- Hepatotoxicity (benign tumour) [12]: 0
- Hepatotoxicity (acute) [13]: 2
- Hepatotoxicity (granulomatous hepatitis) [14]: 0
- Hepatotoxicity (chronic liver disease) [15]: 0
- Hepatotoxicity (moderate) [16]: 4

SMILES: OC(c1cc(C(F)(F)F)nc2c(C(F)(F)F)cccc12)C1CCCCN1 (centres undefined) [MEFLOQUINE]
- Hepatotoxicity (time to onset) [1]: 2 weeks - 3 weeks
- Hepatotoxicity (acute) [2]: 0%
- Hepatotoxicity (association with vascular disease) [3]: 0
- Hepatotoxicity (moderate) [4]: 22.5%
- Hepatotoxicity (cytolytic) [5]: 1
- Hepatotoxicity (animal toxicity known) [6]: yes
- Hepatotoxicity (steatosis) [7]: 1
- Hepatotoxicity (choleostasis) [8]: 0
- Hepatotoxicity (cirrhosis) [9]: 0
- Hepatotoxicity (severe hepatitis) [10]: 0
- Hepatotoxicity (malignant tumour) [11]: 0
- Hepatotoxicity (benign tumour) [12]: 0
- Hepatotoxicity (acute) [13]: 2
- Hepatotoxicity (granulomatous hepatitis) [14]: 0
- Hepatotoxicity (chronic liver disease) [15]: 0
- Hepatotoxicity (moderate) [16]: 5

SMILES: [N-]=[N+]=O [NITROUS OXIDE]
- Hepatotoxicity (time to onset) [1]: 9 days
- Hepatotoxicity (acute) [2]: 0%
- Hepatotoxicity (association with vascular disease) [3]: 0
- Hepatotoxicity (moderate) [4]: 0%
- Hepatotoxicity (cytolytic) [5]: 1
- Hepatotoxicity (animal toxicity known) [6]: yes
- Hepatotoxicity (steatosis) [7]: 0
- Hepatotoxicity (choleostasis) [8]: 0
- Hepatotoxicity (cirrhosis) [9]: 0
- Hepatotoxicity (severe hepatitis) [10]: 0
- Hepatotoxicity (malignant tumour) [11]: 0
- Hepatotoxicity (benign tumour) [12]: 0
- Hepatotoxicity (acute) [13]: 1
- Hepatotoxicity (granulomatous hepatitis) [14]: 0
- Hepatotoxicity (chronic liver disease) [15]: 0
- Hepatotoxicity (moderate) [16]: 1

SMILES: CNCCC=C1c2ccccc2CCc2ccccc21 [NORTRIPTYLINE]
- Hepatotoxicity (time to onset) [1]: 2 months - 3 months
- Hepatotoxicity (acute) ([2]; Liver): 0%
- Hepatotoxicity (association with vascular disease) [3]: 0
- Hepatotoxicity (moderate) ([4]; Liver): 0%
- Hepatotoxicity (cytolytic) ([5]; Liver): 2
- Hepatotoxicity (animal toxicity known) [6]: yes
- Hepatotoxicity (steatosis) [7]: 0
- Hepatotoxicity (choleostasis) ([8]; Liver): 0
- Hepatotoxicity (cirrhosis) [9]: 0
- Hepatotoxicity (severe hepatitis) ([10]; Liver): 2
- Hepatotoxicity (malignant tumour) [11]: 0
- Hepatotoxicity (benign tumour) [12]: 0
- Hepatotoxicity (acute) [13]: 2
- Hepatotoxicity (granulomatous hepatitis) ([14]; Liver): 0
- Hepatotoxicity (chronic liver disease) [15]: 0
- Hepatotoxicity (moderate) [16]: 1

SMILES: NNCCc1ccccc1 [PHENELZINE]
- Hepatotoxicity (time to onset) [1]: 3 weeks - 5 months
- Hepatotoxicity (acute) ([2]; Liver): 0%
- Hepatotoxicity (association with vascular disease) [3]: 0
- Hepatotoxicity (moderate) ([4]; Liver): 0%
- Hepatotoxicity (cytolytic) ([5]; Liver): 6
- Hepatotoxicity (animal toxicity known) [6]: yes
- Hepatotoxicity (steatosis) [7]: 0
- Hepatotoxicity (choleostasis) ([8]; Liver): 0
- Hepatotoxicity (cirrhosis) [9]: 1
- Hepatotoxicity (severe hepatitis) ([10]; Liver): 7
- Hepatotoxicity (malignant tumour) [11]: 1
- Hepatotoxicity (benign tumour) [12]: 0
- Hepatotoxicity (acute) [13]: 6
- Hepatotoxicity (granulomatous hepatitis) ([14]; Liver): 0
- Hepatotoxicity (chronic liver disease) [15]: 0
- Hepatotoxicity (moderate) [16]: 1

SMILES: COC(=O)[C@H]1[C@H]2C[C@@H]3c4[nH]c5cc(OC)ccc5c4CCN3C[C@H]2C[C@@H](OC(=O)c2cc(OC)c(OC)c(OC)c2)[C@@H]1OC [RESERPINE]
- Hepatotoxicity (time to onset) [1]: 1 year
- Hepatotoxicity (acute) [2]: 0%
- Hepatotoxicity (association with vascular disease) [3]: 0
- Hepatotoxicity (moderate) [4]: 0%
- Hepatotoxicity (cytolytic) [5]: 0
- Hepatotoxicity (animal toxicity known) [6]: yes
- Hepatotoxicity (steatosis) [7]: 0
- Hepatotoxicity (choleostasis) [8]: 1
- Hepatotoxicity (cirrhosis) [9]: 0
- Hepatotoxicity (severe hepatitis) [10]: 0
- Hepatotoxicity (malignant tumour) [11]: 0
- Hepatotoxicity (benign tumour) [12]: 0
- Hepatotoxicity (acute) [13]: 3
- Hepatotoxicity (granulomatous hepatitis) [14]: 0
- Hepatotoxicity (chronic liver disease) [15]: 0
- Hepatotoxicity (moderate) [16]: 0

SMILES: CN(C)[C@@H]1C(O)=C(C(=O)NCN2CCCC2)C(=O)[C@@]2(O)C(O)=C3C(=O)c4c(O)cccc4[C@@](C)(O)[C@H]3C[C@@H]12 [ROLITETRACYCLINE]
- Hepatotoxicity (time to onset) [1]: 2 days
- Hepatotoxicity (acute) [2]: 0%
- Hepatotoxicity (association with vascular disease) [3]: 0
- Hepatotoxicity (moderate) [4]: 0%
- Hepatotoxicity (cytolytic) [5]: 1
- Hepatotoxicity (animal toxicity known) [6]: yes
- Hepatotoxicity (steatosis) [7]: 0
- Hepatotoxicity (choleostasis) [8]: 0
- Hepatotoxicity (cirrhosis) [9]: 0
- Hepatotoxicity (severe hepatitis) [10]: 1
- Hepatotoxicity (malignant tumour) [11]: 0
- Hepatotoxicity (benign tumour) [12]: 0
- Hepatotoxicity (acute) [13]: 1
- Hepatotoxicity (granulomatous hepatitis) [14]: 0
- Hepatotoxicity (chronic liver disease) [15]: 0
- Hepatotoxicity (moderate) [16]: 0

SMILES: N=C(N)c1ccc(/C=C/c2ccc(C(=N)N)cc2)cc1 [STILBAMIDINE]
- Hepatotoxicity (time to onset) [1]: 1 month - 3 months
- Hepatotoxicity (acute) [2]: 0%
- Hepatotoxicity (association with vascular disease) [3]: 0
- Hepatotoxicity (moderate) [4]: 0%
- Hepatotoxicity (cytolytic) [5]: 1
- Hepatotoxicity (animal toxicity known) [6]: yes
- Hepatotoxicity (steatosis) [7]: 0
- Hepatotoxicity (choleostasis) [8]: 0
- Hepatotoxicity (cirrhosis) [9]: 0
- Hepatotoxicity (severe hepatitis) [10]: 0
- Hepatotoxicity (malignant tumour) [11]: 0
- Hepatotoxicity (benign tumour) [12]: 0
- Hepatotoxicity (acute) [13]: 1
- Hepatotoxicity (granulomatous hepatitis) [14]: 0
- Hepatotoxicity (chronic liver disease) [15]: 0
- Hepatotoxicity (moderate) [16]: 0

SMILES: COc1ccc(NS(=O)(=O)c2ccc(N)cc2)nn1 [SULFAMETHOXYPYRIDAZINE]
- Hepatotoxicity (time to onset) [1]: 1 month - 2 months
- Hepatotoxicity (acute) [2]: 0%
- Hepatotoxicity (association with vascular disease) [3]: 0
- Hepatotoxicity (moderate) [4]: 0%
- Hepatotoxicity (cytolytic) [5]: 4
- Hepatotoxicity (animal toxicity known) [6]: yes
- Hepatotoxicity (steatosis) [7]: 0
- Hepatotoxicity (choleostasis) [8]: 2
- Hepatotoxicity (cirrhosis) [9]: 0
- Hepatotoxicity (severe hepatitis) [10]: 0
- Hepatotoxicity (malignant tumour) [11]: 0
- Hepatotoxicity (benign tumour) [12]: 0
- Hepatotoxicity (acute) [13]: 4
- Hepatotoxicity (granulomatous hepatitis) [14]: 0
- Hepatotoxicity (chronic liver disease) [15]: 0
- Hepatotoxicity (moderate) [16]: 0

SMILES: COc1ccc2c(C(=S)N(C)CC(=O)O)cccc2c1C(F)(F)F [TOLRESTAT]
- Hepatotoxicity (time to onset) [1]: 7 weeks - 6 months
- Hepatotoxicity (acute) [2]: 0.2%
- Hepatotoxicity (association with vascular disease) [3]: 0
- Hepatotoxicity (moderate) [4]: 15.4%
- Hepatotoxicity (cytolytic) [5]: 2
- Hepatotoxicity (animal toxicity known) [6]: yes
- Hepatotoxicity (steatosis) [7]: 0
- Hepatotoxicity (choleostasis) [8]: 0
- Hepatotoxicity (cirrhosis) [9]: 0
- Hepatotoxicity (severe hepatitis) [10]: 1
- Hepatotoxicity (malignant tumour) [11]: 0
- Hepatotoxicity (benign tumour) [12]: 0
- Hepatotoxicity (acute) [13]: 2
- Hepatotoxicity (granulomatous hepatitis) [14]: 0
- Hepatotoxicity (chronic liver disease) [15]: 0
- Hepatotoxicity (moderate) [16]: 7

SMILES: OCC(Br)(Br)Br [TRIBROMOETHANOL]
- Hepatotoxicity (time to onset) [1]: 1 day - 4 days
- Hepatotoxicity (acute) [2]: 0.1%
- Hepatotoxicity (association with vascular disease) [3]: 0
- Hepatotoxicity (moderate) [4]: 0%
- Hepatotoxicity (cytolytic) [5]: 8
- Hepatotoxicity (animal toxicity known) [6]: yes
- Hepatotoxicity (steatosis) [7]: 9
- Hepatotoxicity (choleostasis) [8]: 0
- Hepatotoxicity (cirrhosis) [9]: 0
- Hepatotoxicity (severe hepatitis) [10]: 15
- Hepatotoxicity (malignant tumour) [11]: 0
- Hepatotoxicity (benign tumour) [12]: 0
- Hepatotoxicity (acute) [13]: 9
- Hepatotoxicity (granulomatous hepatitis) [14]: 0
- Hepatotoxicity (chronic liver disease) [15]: 0
- Hepatotoxicity (moderate) [16]: 1
